Our source for the IC50, CC50 and EC50 values is ChEMBL document CHEMBL1201862, “PubChem BioAssay data set” (2004).

Calls of active or inactive are those of the source.

The target in experiment [1] is T1, Heat shock 70 kDa protein 1A (Homo sapiens, UniProt P0DMV8). The experiment can be described thus: Hsp70 inhibitors, probe displacement, primary screen, biochemical, fluorescence polarization (AID 583). On the technique in general: Fluorescence polarisation rises when a labelled molecule tumbles more slowly, as on binding a larger partner.
For experiment [2], the target named is T1, Heat shock 70 kDa protein 1A. The experiment can be described thus: Hsp70 inhibitors, biochemical, TR-FRET (AID 786).
Experiment [3] has as its target T2, Neuropeptide Y receptor type 1 (Homo sapiens, UniProt P25929).
T2 sequence (P25929 whole entry): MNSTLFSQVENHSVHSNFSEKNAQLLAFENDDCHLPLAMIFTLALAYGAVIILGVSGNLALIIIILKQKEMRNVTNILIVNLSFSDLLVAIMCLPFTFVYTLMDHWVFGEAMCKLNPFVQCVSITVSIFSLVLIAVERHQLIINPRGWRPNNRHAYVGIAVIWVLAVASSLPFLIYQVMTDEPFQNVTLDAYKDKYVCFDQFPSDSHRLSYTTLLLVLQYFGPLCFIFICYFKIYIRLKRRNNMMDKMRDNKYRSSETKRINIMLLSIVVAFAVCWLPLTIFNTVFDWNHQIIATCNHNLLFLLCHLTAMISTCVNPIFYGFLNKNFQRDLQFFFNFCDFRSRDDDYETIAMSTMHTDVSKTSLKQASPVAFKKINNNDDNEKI
The experiment can be described thus: NPY-Y1 receptor antagonist potency, dose response, cell-based (AID 1277). Format: functional.

Experiment [4] has as its target T3, Neuropeptide Y receptor type 2 (Homo sapiens, UniProt P49146).
T3 sequence (P49146 whole entry): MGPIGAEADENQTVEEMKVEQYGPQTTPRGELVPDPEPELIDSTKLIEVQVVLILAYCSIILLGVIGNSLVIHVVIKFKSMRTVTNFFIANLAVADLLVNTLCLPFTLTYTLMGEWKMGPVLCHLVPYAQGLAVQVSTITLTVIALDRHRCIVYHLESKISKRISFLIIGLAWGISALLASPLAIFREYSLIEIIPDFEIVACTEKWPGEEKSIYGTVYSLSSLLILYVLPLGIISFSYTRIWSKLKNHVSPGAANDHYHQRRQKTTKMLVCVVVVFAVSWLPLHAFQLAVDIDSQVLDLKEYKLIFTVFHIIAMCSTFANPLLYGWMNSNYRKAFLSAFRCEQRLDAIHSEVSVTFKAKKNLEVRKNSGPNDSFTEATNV
Briefly: NPY-Y2 antagonist potency, selectivity check, dose response, counter-screen for NPY-Y1 antagonist project, cell-based (AID 1278). Format: functional. A general note: The purpose of a counterscreen is to sort out artefacts and off-target activity.

Experiment [5] concerns the target Epstein-Barr nuclear antigen 1 (Epstein-Barr virus (strain B95-8) (HHV-4) (Human herpesvirus 4), UniProt P03211). The experiment can be described thus: EBNA-1 inhibitors, dose response, biochemical, fluorescence polarization, 1536-well (AID 2381).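 Note: fluorescence polarization of a Cy5 DNA probe bound by EBNA-1 protein.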 Set-up: species or system human gammaherpesvirus 4.
The target in experiment [6] is Lytic switch protein BZLF1 (Epstein-Barr virus (strain B95-8) (HHV-4) (Human herpesvirus 4), UniProt P03206). The experiment can be described thus: EBV ZTA inhibitors, dose response, counter-screen for EBNA-1 inhibitor project, biochemical, fluorescence polarization, Epstein-Barr virus, 1536-well (AID 2377).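 Note: fluorescence polarization of Cy5-labelled ZRE DNA probe bound by purified Zta.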 Set-up: species or system human gammaherpesvirus 4.
Experiment [7] is described as follows: HEp-2 cell cytotoxicity, dose response, cytotoxicity control for RSV inhibitor project, HTS (AID 2410). The settings on record: human respiratory syncytial virus. The experiment is classed as functional.
Experiment [8] is described as follows: cytotoxicity toward NIH3T3 fibroblasts, dose response, counter-screen, cell-based, ATP luminescence, mouse fibroblasts (AID 2010).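 Note: cells exposed to compound for about 90 hours before reading.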 Format: functional.
The nature of experiment [9]: inhibitors of intracellular T. cruzi replication, confirmation, NIH3T3 host cells, beta-gal luminescence (AID 2044).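 Note: intracellular parasites grown in NIH/3T3 mouse fibroblasts as host cells; luminescent beta-galactosidase reporter signal from transgenic T. cruzi replicating inside host cells; inhibitors lower the luminescence signal.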 The experiment is classed as functional, cell-based.
Experiment [10] addresses Sphingosine 1-phosphate receptor 3 (Homo sapiens, UniProt Q99500). Briefly: Dose response cell-based high throughput screening assay for antagonists of the Sphingosine 1-Phosphate Receptor 3 (S1P3). [Related pubchem assays: 1429, 485 ]. Format: functional.
For experiment [11], the target named is 5-hydroxytryptamine receptor 1E (Homo sapiens, UniProt P28566). Briefly: Counterscreen assay for S1P3 antagonists: Dose response cell-based high throughput screening assay to identify antagonists of the 5-Hydroxytryptamine Receptor Subtype 1E (5HT1E). [Related pubchem assays: 1429, 485 ]. The experiment is classed as functional.
Experiment [12] addresses T4, Estrogen receptor beta (Homo sapiens, UniProt Q92731).
The target of another experiment is T5, Estrogen receptor (Homo sapiens, UniProt P03372).
T5 sequence (P03372 whole entry): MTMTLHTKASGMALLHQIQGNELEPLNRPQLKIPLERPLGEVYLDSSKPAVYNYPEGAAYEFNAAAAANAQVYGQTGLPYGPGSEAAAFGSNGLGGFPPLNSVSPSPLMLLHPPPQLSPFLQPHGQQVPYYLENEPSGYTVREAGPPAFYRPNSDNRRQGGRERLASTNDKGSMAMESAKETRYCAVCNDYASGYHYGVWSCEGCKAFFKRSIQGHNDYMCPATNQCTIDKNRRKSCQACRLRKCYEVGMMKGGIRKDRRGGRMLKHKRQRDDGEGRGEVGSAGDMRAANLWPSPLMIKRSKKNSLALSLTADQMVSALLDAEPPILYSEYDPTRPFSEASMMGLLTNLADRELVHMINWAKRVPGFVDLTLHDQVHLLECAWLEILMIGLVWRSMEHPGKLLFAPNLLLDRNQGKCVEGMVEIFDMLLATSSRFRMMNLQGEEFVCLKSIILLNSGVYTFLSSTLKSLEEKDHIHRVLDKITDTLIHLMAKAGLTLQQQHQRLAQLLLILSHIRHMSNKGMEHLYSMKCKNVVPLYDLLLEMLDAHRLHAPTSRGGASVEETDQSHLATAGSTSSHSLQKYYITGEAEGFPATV

In experiment [13] the target is T4, Estrogen receptor beta. Briefly: ERβ–SRC-3 coactivator interaction inhibitors, confirmation, orthogonal assay, biochemical, ELISA, streptavidin-HRP readout (AID 1060).
For another experiment, the target named is NS3 (Hepatitis C virus, UniProt A3EZJ3). Briefly: PubChem AID 2173. Also on record: species or system Hepacivirus hominis.
The target of experiment [14] is Induced myeloid leukemia cell differentiation protein Mcl-1 (Homo sapiens, UniProt Q07820). The experiment is classed as functional.
Induced myeloid leukemia cell differentiation protein Mcl-1, sequence (Q07820 whole entry): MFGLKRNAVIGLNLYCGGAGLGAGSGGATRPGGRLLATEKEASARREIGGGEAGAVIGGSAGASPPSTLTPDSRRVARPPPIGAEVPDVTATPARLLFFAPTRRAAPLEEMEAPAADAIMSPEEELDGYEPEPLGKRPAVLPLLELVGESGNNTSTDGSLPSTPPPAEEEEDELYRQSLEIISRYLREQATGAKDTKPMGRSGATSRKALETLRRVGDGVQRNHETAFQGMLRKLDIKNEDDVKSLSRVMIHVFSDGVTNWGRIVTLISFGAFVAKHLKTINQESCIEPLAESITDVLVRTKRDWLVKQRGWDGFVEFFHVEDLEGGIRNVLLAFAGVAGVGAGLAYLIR

T1 sequence (P0DMV8 whole entry): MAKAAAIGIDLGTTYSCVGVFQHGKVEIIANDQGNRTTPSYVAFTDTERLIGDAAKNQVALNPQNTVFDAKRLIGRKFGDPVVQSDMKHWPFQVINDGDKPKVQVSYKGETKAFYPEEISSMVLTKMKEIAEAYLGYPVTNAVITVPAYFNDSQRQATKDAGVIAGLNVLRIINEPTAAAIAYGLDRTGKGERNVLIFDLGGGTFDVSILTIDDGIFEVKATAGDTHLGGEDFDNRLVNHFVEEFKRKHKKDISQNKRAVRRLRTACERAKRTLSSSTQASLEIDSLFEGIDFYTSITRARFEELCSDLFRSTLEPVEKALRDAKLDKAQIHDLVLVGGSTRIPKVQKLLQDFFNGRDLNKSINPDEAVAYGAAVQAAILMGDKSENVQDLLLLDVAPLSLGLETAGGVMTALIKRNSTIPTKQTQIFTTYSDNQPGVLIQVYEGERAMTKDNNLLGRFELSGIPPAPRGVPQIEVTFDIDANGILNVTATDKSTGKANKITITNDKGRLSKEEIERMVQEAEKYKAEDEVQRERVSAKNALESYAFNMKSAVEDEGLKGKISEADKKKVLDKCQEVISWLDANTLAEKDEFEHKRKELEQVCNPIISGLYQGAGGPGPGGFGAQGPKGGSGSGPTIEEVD
T4 sequence (Q92731 whole entry): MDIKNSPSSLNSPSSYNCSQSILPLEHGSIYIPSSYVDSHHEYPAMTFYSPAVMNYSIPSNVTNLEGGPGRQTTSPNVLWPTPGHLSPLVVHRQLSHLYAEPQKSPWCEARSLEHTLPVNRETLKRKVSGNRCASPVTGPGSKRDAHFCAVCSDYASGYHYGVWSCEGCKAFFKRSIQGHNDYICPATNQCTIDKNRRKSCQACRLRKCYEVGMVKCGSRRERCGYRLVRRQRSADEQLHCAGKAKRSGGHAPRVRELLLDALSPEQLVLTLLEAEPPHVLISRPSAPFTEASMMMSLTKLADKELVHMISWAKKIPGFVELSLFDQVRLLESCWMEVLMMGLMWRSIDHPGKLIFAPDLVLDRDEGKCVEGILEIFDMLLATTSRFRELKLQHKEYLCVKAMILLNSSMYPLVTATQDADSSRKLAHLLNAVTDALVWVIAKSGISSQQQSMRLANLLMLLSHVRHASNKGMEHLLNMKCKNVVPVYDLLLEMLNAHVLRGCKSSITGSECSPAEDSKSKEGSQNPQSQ
Sphingosine 1-phosphate receptor 3, sequence (Q99500 whole entry): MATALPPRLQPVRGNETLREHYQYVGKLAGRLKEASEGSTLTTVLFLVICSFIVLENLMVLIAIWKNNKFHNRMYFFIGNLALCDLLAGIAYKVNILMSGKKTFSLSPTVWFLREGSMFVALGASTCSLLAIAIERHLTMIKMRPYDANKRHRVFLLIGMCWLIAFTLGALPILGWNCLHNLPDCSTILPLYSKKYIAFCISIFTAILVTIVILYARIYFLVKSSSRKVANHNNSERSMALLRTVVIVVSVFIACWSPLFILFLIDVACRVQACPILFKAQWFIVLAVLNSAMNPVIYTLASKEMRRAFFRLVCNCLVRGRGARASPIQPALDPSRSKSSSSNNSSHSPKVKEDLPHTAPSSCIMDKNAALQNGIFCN
5-hydroxytryptamine receptor 1E, sequence (P28566 whole entry): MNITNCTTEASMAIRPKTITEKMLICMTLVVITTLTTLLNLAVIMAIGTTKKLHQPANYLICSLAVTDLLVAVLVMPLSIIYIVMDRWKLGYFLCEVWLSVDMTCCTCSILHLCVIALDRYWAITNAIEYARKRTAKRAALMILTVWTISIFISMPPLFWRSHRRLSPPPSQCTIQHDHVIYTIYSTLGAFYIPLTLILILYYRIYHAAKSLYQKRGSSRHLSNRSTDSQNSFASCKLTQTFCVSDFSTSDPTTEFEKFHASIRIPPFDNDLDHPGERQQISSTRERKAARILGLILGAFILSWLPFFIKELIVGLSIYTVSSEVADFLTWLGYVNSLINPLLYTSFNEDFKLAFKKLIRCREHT
Epstein-Barr nuclear antigen 1, sequence (P03211 whole entry): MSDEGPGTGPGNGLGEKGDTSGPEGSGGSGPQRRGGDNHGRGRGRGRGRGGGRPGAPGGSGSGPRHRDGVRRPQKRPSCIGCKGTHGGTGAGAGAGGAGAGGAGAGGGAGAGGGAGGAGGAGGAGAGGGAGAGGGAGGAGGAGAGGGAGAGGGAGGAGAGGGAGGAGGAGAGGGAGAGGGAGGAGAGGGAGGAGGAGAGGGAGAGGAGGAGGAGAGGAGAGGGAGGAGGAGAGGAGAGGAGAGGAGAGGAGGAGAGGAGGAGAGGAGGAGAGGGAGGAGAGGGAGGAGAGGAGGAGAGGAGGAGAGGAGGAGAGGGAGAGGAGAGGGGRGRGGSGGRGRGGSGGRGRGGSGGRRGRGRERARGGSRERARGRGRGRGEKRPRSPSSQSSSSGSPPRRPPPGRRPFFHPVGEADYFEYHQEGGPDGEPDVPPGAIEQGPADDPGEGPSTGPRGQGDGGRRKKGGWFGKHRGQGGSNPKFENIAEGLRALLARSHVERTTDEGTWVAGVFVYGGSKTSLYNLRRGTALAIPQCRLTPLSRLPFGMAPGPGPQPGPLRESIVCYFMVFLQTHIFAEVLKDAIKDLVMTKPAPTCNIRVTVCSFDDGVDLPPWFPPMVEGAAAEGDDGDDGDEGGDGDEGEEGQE
NS3, sequence (A3EZJ3 whole entry): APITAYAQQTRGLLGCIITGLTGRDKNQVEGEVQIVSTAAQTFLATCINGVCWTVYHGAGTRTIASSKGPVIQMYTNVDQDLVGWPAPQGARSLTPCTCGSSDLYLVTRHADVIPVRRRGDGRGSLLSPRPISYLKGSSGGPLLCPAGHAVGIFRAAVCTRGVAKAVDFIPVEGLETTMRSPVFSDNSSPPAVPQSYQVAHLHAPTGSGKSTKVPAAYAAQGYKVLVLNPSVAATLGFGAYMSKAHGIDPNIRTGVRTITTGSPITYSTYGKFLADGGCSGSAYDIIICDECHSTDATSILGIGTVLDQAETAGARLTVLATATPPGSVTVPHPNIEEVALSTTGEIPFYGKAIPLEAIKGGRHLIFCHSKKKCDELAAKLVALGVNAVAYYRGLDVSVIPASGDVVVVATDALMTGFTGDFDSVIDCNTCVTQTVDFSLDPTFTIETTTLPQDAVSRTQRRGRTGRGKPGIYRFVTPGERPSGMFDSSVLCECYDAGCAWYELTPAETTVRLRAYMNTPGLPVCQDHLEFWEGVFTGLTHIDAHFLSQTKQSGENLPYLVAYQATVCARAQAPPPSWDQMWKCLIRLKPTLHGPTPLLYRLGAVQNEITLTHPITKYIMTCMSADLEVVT
Lytic switch protein BZLF1, sequence (P03206 whole entry): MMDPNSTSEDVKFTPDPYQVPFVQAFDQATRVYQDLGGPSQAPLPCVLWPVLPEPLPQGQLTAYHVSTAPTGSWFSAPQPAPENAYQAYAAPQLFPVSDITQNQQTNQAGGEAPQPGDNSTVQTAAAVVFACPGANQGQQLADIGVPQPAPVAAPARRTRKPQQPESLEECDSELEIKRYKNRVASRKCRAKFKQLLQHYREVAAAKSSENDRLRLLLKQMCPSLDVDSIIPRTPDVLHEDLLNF

Turning to `Nc1nc2n(n1)C(c1ccco1)CC(c1ccc(Cl)cc1Cl)N2` (stereo unspecified), the IC50 in experiment [1] and in experiment [2] was > 100 µM (not active) throughout.
`COc1ccccc1CN(Cc1cc2cc(C)ccc2nc1O)Cc1nnnn1Cc1ccco1`: the values for the IC50 in experiment [3] and in experiment [4] were 22.7 µM (not active) and > 35 µM (not active), respectively.
With `N#Cc1ccc(N2Cc3ccccc3/C2=N/C(=O)Nc2ccc(Cl)cc2)cc1`, the concentration for half-maximal inhibition (IC50) is 8.14 µM (active) in [5] and > 111 µM (not active) in experiment [6].
With `CC1C(c2ccccc2)N(C)C(c2ccccc2)CC1(O)c1ccc(F)cc1` (stereo unspecified), in experiment [7], the CC50 was 19.4 µM (active). Also, the EC50 was > 60 µM (not active) in [8] and 2.78 µM (active) in [9]. The half-maximal inhibitory concentration (IC50) in [10] and in [11] was > 50 µM (not active) throughout.
Take `C=CCSC1=N/C(=C\C=C\c2ccco2)C(=O)S1`: the IC50 on Estrogen receptor beta [12] was 10.3 µM (active); at Estrogen receptor, > 50 µM (not active); against Estrogen receptor beta [13] it was > 50 µM (not active); against NS3 it was 11 µM (not active); in experiment [14] it was 5.61 µM (active).

By IC50 is commonly meant the midpoint of a concentration-inhibition curve. In general, CC50 refers to the concentration giving 50% cytotoxicity. Broadly, the EC50 is the concentration needed to bring the measured effect to its halfway point.
